Reference: ChEMBL document CHEMBL1130782, “Syntheses and evaluation of benzodiazaborine compounds against M. tuberculosis H37Rv in vitro” (1998)
Converted amounts (≈) assume the structure as drawn.

Experiments:
Assay type in all cases: functional
[1] = system: Mycobacterium tuberculosis; test: Compound was tested in vitro for growth inhibition activity against Mycobacterium tuberculosis H37Rv in Bactec 12B media.
[2] = system: Mycobacterium tuberculosis; test: Compound was tested in vitro for growth inhibition activity against Mycobacterium tuberculosis H37Rv in Bactec 6A media.
Escherichia coli = test: Compound was tested in vitro for growth inhibition activity against Escherichia coli

| Compound | MIC [1] | MIC [2] | MIC (Escherichia coli) |
| --- | --- | --- | --- |
| NC(=O)c1cnccn1 [PYRAZINAMIDE] | > 1600 µM | 1600 µM (≈ 197 µg/mL) |  |
| O=C1Nc2ccccc2B(O)N1c1ccccc1 | 67.2 µM (≈ 16 µg/mL) | 33.6 µM (≈ 8 µg/mL) |  |
| NCCOB(c1ccccc1)c1ccccc1 | 285 µM (≈ 64.2 µg/mL) | 71 µM (≈ 16 µg/mL) |  |
| OB1c2ccccc2N=C(S)N1c1cccnc1 | 63 µM (≈ 16.1 µg/mL) | 31.4 µM (≈ 8.01 µg/mL) |  |
| CCCCN1B(O)c2ccccc2NC1=O | > 587 µM | > 587 µM |  |
| NNC(=O)c1ccncc1 [ISONIAZID] | < 0.16 µM | < 0.02 µM |  |
| Cc1ccc(S(=O)(=O)N2N=Cc3ccccc3B2O)cc1 | 320 µM (≈ 96 µg/mL) | 40 µM (≈ 12 µg/mL) | 83 µM (≈ 24.9 µg/mL) |
| OB1N=C(c2cnccn2)Nc2ccccc21 | > 572 µM | > 572 µM |  |
